Measurements published in patent US8680153B2, “Method for correcting a lipid imbalance in a subject” (The Royal Institution for the Advancement of …, priority 2005, dated 2014).

Columns and labels:
[1] = tested on: DHA levels, DHA/AA ratio, ceramide levels, AA levels; assay: Systemic lipid parameters in several organs, biweekly treatment for 4 weeks; format: in vivo, mice; conditions: four-week biweekly treatment
Description: Fenretinide Diet Supplementation. Examples 2 to 6: fenretinide (Sigma-Aldrich, Oakville, ON) powder was resuspended in 95% ethanol and subsequently incorporated in the Peptamen liquid diet. It was protected from light and kept at 4° C. before being given to the mice (5 mg/kg per day per mouse). Mock-treated diets were prepared similarly by adding ethanol to the Peptamen diet but omitting the fenretinide supplementation. The diet was given every morning for 28 consecutive days with specific monitoring of the quantity consumed by the mice in each cage. Examples 7 to 12: fenretinide powder was kindly provided by Dr. Robert Smith (NIH; Bethesda, Md., USA). Fenretinide was resuspended in 95% ethanol to make a 2 μg/μL concentration. Approximately 40 μL of this preparation was incorporated into the Peptamen liquid diet (5 mg/kg per day per mouse). […] During the treatment period each mouse was kept in a separate cage (including WT mice) and was monitored to ensure that the entire amount of Peptamen containing the fenretinide or with out was consumed. […]
Ceramide/Sphingolipids analysis. The concentration of ceramide in the (lung, liver, ileum, pancreas homogenates) and plasma from mice and humans were determined by ELISA^39;40 on separated lipids samples by thin layer chromatography, as described above. […]

[2] = Weight loss after P. aeruginosa lung infection; format: in vivo, mice; conditions: for Mean weight loss (% of initial weight): mean ± SEM
Description: Fenretinide Diet Supplementation. Examples 2 to 6: fenretinide (Sigma-Aldrich, Oakville, ON) powder was resuspended in 95% ethanol and subsequently incorporated in the Peptamen liquid diet. It was protected from light and kept at 4° C. before being given to the mice (5 mg/kg per day per mouse). Mock-treated diets were prepared similarly by adding ethanol to the Peptamen diet but omitting the fenretinide supplementation. The diet was given every morning for 28 consecutive days with specific monitoring of the quantity consumed by the mice in each cage. Examples 7 to 12: fenretinide powder was kindly provided by Dr. Robert Smith (NIH; Bethesda, Md., USA). Fenretinide was resuspended in 95% ethanol to make a 2 μg/μL concentration. Approximately 40 μL of this preparation was incorporated into the Peptamen liquid diet (5 mg/kg per day per mouse). The prepared food containing fenretinide was then stored in the dark at 4° C. for no more than 3 hours prior to being administered to the mice. To ensure that the entire drug dose was consumed, the mice were given 10 mL of fenretinide-treated Peptamen, which represents ⅔ of the daily mouse food consumption, in the late afternoon. The remaining 5 mL of Peptamen (without fenretinide) was given the following morning. Mice were treated twice a week for 4 weeks. During the treatment period each mouse was kept in a separate cage (including WT mice) and was monitored to ensure that the entire amount of Peptamen containing the fenretinide or with out was consumed. The diet for the mock-treated control group was prepared and administered similarly to that described above, by adding the same volume of ethanol to the Peptamen diet but omitting the fenretinide supplementation.
Mouse Lung Infection. Mice were anaesthetized with a combination of ketamine (7.5 mg/mL) and xylazine (0.5 mg/mL) administered intraperitoneally at a dose of 20 mL/kg of body weight. Once the mouse was successfully anaesthetized, the animal was installed under binoculars (Microscope M650, Wild Leitz, Willowdale, ON) in the vertical position and held on a restraining board by holding the animal by its upper incisor teeth (Guilbault, et al. (2005) supra). The tongue was then gently pulled to the side of the mouth and a 26-G gavage needle was inserted into the mouth and guided through the pharynx gently touching the vocal cords to see the lumen of the trachea; the needle was then introduced into the trachea to reach the lung for the bilateral injection of the 50 microliter inoculum. After inoculation, the animal regained righting reflex within an hour. A final dose of 1×10^6 P. aeruginosa was used for infection using wild-type and Cftr-KO mice. Mice were monitored 3 times daily; the maximum weight loss allowed was 15%. Mice were sacrificed by CO2 overdose.

[3] = tested on: cytokines/chemokines (IL-17, IL-1β, IL-6, IL-7, IL-9, IL-10, IL-15, G-CSF, MIP-1a, KC); assay: Cytokine/chemokine levels in lung homogenates of infected mice; format: in vivo
Description: Lung Homogenates. Lungs from infected mice were harvested and homogenized for 60 seconds at high speed (homogenizer PT10135; Brinkmann Instruments Co., Mississauga, ON) in 4 mL of sterile PBS (INVITROGEN™). Serial, 10-fold dilutions of lung homogenates were plated on petri dishes containing TSA. The number of CFU per lung was counted after overnight incubation at 37° C. For cytokine measurements, lung homogenates were centrifuged at 1500×g at 4° C. for 10 minutes; the supernatants were then removed, aliquoted in new tubes and stored at −20° C. until assayed for cytokine concentrations.
Cytokine/chemokine measurements. The levels of 10 cytokines/chemokines (IL-1β, IL-6, IL-7, IL-9, IL-10, IL-15, IL-17, G-CSF (granulocyte colony-stimulating factor), MIP-1a (macrophage inflammatory protein 1 alpha), and N51/KC (cytokine-induced neutrophil chemoattractant), were assessed in lung homogenates prepared from infected animals with the Mouse Cytokine/Chemokine LINCOplex kit (Linco Research, Inc, St-Charles, Mo.) using Luminex™ technology and assayed with the Luminex100LS™ system by Linco Research, Inc. The cytokine detection limit for this assay was 3.2 pg/ml.

## CC1=C(/C=C/C(C)=C/C=C/C(C)=C/C(=O)Nc2ccc(O)cc2)C(C)(C)CCC1 [fenretinide, all-trans-N-(4-hydroxyphenyl) retinamide]
[1]; Cftr-KO and HZ mice
  Defect/imbalance in DHA levels, DHA/AA ratio and ceramide levels in all organs: effective at correcting, at least partially
[1]; Cftr-KO mice
  AA levels in control organs (heart, kidney and spleen): decreases the AA levels to normal
[2]; Cftr-KO mice, day 1 post-infection
  Mean weight loss (% of initial weight): −4.0 ± 1.1 % of initial weight
[2]; Cftr-KO mice, day 2 post-infection
  Mean weight loss (% of initial weight): −12.9 ± 0.9 % of initial weight
[2]; Cftr-KO mice, day 3 post-infection
  Mean weight loss (% of initial weight): −15.3 ± 1.8 % of initial weight
[2]; Wild-type mice, day 1 post-infection
  Mean weight loss (% of initial weight): −4.8 ± 0.4 % of initial weight
[2]; Wild-type mice, day 2 post-infection
  Mean weight loss (% of initial weight): −9.9 ± 0.5 % of initial weight
[2]; Wild-type mice, day 3 post-infection
  Mean weight loss (% of initial weight): −11.1 ± 1.2 % of initial weight
[2]; day 1 to day 3 post-infection
  Effect on mean weight loss, fenretinide-treated vs mock-treated: no significant difference
[3]; Cftr-KO mice, not statistically significant
  Levels of IL-1β, IL-9, KC and MIP-1a vs mock-treated: trend towards decreased levels
[3]; Cftr-KO mice, p=0.049
  IL-17 level, decrease vs Cftr-KO controls: 2.9 fold
[3]; WT mice
  All cytokines tested, fenretinide-treated vs untreated: no difference
[3]; time point tested
  IL-6, G-CSF, IL-15, IL-10 and IL-7 levels: not affected
